One molecule from article PMC8092220, “Insights into the Relationship between Cobamide Synthase and the Cell Membrane” (mBio, 2021) can be followed below.

pKd: −log10 of the molar value.

The target of the test is T1, cobamide (5′ phosphate) synthase (CobS) (Salmonella enterica, UniProt Q05602).
T1 construct: CobS^WT reconstituted in proteoliposomes
In words: DRaCALA with […]α-RP, CobS proteoliposomes (Kd […] for DHPC-solubilized CobS); also protection in limited trypsin proteolysis. In kind it is binding.

T1 sequence (Q05602 whole entry): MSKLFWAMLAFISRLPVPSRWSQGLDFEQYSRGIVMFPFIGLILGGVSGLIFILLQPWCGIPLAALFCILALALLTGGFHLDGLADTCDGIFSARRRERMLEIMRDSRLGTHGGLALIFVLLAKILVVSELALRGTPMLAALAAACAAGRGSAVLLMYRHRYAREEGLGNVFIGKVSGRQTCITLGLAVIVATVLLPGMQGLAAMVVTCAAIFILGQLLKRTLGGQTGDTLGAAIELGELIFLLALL

The molecule `Cc1cc2ncn([C@H]3O[C@H](COP(=O)(O)O)[C@@H](O)[C@H]3O)c2cc1C` [α-RP, N1-(5-phospho-alpha-D-ribosyl)-5,6-dimethylbenzimidazole] gave a pKd of 6.24.

A word on the pKd: it is the Kd on a negative log10 scale, so that one unit is a factor of ten.
